# Reference: patent US11241441B2, “Formulations of lixivaptan for the treatment of polycystic disease” (PALLADIO BIOSCIENCES, INC., priority 2017, dated 2022)
# Legend:
# [1] = In-clinic pharmacokinetic study: adverse events, serum osmolality, urine output; type: in vivo, human
# Protocol: Subjects received lixivaptan at total daily doses of 100 mg, 200 mg, or 400 mg (administered as 50, 100, and 200 mg Q12H). Subjects were to be enrolled into the study in two cohorts of 30 subjects, but actual cohort numbers were 23 and 34 subjects. Of the 57 subjects enrolled in the study, 27 were female (47.4%) and 30 were male (52.6%). The majority of subjects were White (35/57, 61.4%) and of Hispanic or Latino ethnicity (46/57, 80.7%). The overall mean age of subjects in the study was 33.6 (8.31) years, and the overall mean body mass index for subjects was 26.2 (3.79). There were to be approximately 20 subjects enrolled per dose level. An approximately equal number of males and females were enrolled at each dose level such that neither gender was represented by fewer than 8 subjects. The starting date for each cohort subjects was staggered by 7 days for logistical purposes. Screening evaluations were performed within 28 days prior to Day 1.
# (§1) The following doses of lixivaptan were administered to subjects in this study: (a) Lixivaptan 100 mg, administered as 50 mg [1×50 mg capsule] every 12 hours×15 doses; (b) lixivaptan 200 mg, administered as 100 mg [2×50 mg capsules] every 12 hours×15 doses; and (c) Lixivaptan 400 mg, administered as 200 mg [4×50 mg capsules] every 12 hours×15 doses.
# (§2) Prior to the morning doses of lixivaptan on Days 1 and 8, subjects fasted for approximately 10 hours prior to lixivaptan administration and 4 hours after lixivaptan administration. All other doses were administered under fasting conditions, either 2 hours before or 2 hours after meals. The study medication was administered with 240 milliliters (mL) room temperature water. Subjects were not to receive any oral fluids, other than those used to administer the dose, for 1 hour before and 1 hour after dose administration. Subjects remained sitting or semi-supine, except to void, for 6 hours following the first two doses. While in the clinic, the subjects refrained from strenuous physical activity.
# [2] = test system: cAMP; experiment: Cyclic AMP content of whole kidneys of PCK rats (Direct cAMP ELISA); type: in vivo, rat; conditions: for cAMP: whole kidney
# Protocol: Experimental animals and study design. PCK rats were divided into control and treatment groups at four weeks of age (n=59, ˜10 animals per treatment group and gender). Lixivaptan was dissolved in DMSO and added to ground rodent chow (Regrind Labdiet 5053) at 0.5% or 1.0% concentration (w/w) by homogenous mixing, whereas control animals received the same diet without lixivaptan. Animals were exposed to control- or lixivaptan-diet for eight weeks and were sacrificed at twelve weeks of age.
# Experimental Protocol. Twenty-four hour urine outputs in metabolic cages were collected twice at 6 and 9 weeks of age (Study week 3 and 6, respectively). At the end of the dosing period, the animals were weighed and anesthetized with ketamine 90 mg/kg and xylazine 10 mg/kg, IP. Blood samples were obtained by cardiac puncture for determination of plasma electrolytes, creatinine and plasma urea levels. The right kidney and part of the liver were placed into pre-weighed vials containing 10% formaldehyde in phosphate buffer (pH 7.4). The tissues were embedded in paraffin for histological studies. The left kidneys were immediately frozen in liquid nitrogen for determination of cAMP.
# The kidneys were weighed and ground to fine powder under liquid nitrogen in a stainless steel mortar and homogenized in 10 volumes of 0.1M HCl. The protein concentration was measured by using BCA Protein Assay Kit (Pierce, Ill.). After centrifugation at 600 g for 10 min, the supernatant was further diluted in 0.1M HCl and run directly in the assay or stored frozen for later analysis. The cAMP content was assessed by Direct cAMP ELISA kit, according to the manufacturer's instructions (Enzo Life Sciences, Inc. Farmingdale, N.Y.). Samples were taken in triplicate. The results were expressed in pmol/mg of protein.
# [3] = molecular target: T1, vasopressin V2 receptor (Homo sapiens, UniProt P30518); experiment: In-clinic pharmacokinetic study: spot urine osmolality after twice daily lixivaptan; type: in vivo
# T1 construct: Lixivaptan antagonizes the effects of vasopressin that are mediated by the V2 receptor; from tissue; host or cells: living human subjects (in vivo clinical studies); the receptor is the subjects' own and no tissue was isolated
# Protocol: Subjects received lixivaptan at total daily doses of 100 mg, 200 mg, or 400 mg (administered as 50, 100, and 200 mg Q12H). […] There were to be approximately 20 subjects enrolled per dose level. An approximately equal number of males and females were enrolled at each dose level such that neither gender was represented by fewer than 8 subjects. The starting date for each cohort subjects was staggered by 7 days for logistical purposes. Screening evaluations were performed within 28 days prior to Day 1.
# as §1, §2
# Spot urine collections for urine osmolality determinations were obtained during the clinic stay and at the end of study (EOS).
# Spot urine osmolality was evaluated at different times during the day.
# [4] = molecular target: T1, vasopressin V2 receptor; experiment: Uosm in clinical studies in healthy subjects and various patient populations; type: in vivo; conditions: healthy subjects, hyponatremia patients, ESRD patients
# Protocol: Lixivaptan in healthy volunteers was tested in a randomized, double-blind, placebo-controlled, ascending multiple-dose, safety and tolerance clinical study in 98 healthy male subjects.
# Subjects with Syndrome of Inappropriate Anti-Diuretic Hormone (SIADH) secretion were tested in a randomized, double-blind, placebo-controlled, ascending single-dose, safety and tolerance study.
# T1 sequence (P30518 whole entry): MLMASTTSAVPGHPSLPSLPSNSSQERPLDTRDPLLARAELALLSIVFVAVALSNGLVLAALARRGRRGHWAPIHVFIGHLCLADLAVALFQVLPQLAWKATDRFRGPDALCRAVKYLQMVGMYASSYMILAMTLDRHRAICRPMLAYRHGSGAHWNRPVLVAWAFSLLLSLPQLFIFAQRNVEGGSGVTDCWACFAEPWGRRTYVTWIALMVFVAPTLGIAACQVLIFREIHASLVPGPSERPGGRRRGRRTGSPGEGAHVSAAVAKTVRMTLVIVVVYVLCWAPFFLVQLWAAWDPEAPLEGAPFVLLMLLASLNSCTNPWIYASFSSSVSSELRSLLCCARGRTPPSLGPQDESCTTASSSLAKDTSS
compound,measurement,setting,value
"Cc1ccc(F)cc1C(=O)Nc1ccc(C(=O)N2Cc3cccn3Cc3ccccc32)c(Cl)c1 [Lixivaptan, 5-fluoro-2-methyl-N-[4-(5H-pyrrolo[2,1-C] [1,4]benzodiazepin-10(11H)-ylcarbonyl)-3-chlorophenyl]benzamide]",headache considered possibly or probably related to study drug,[1]; 100 mg group,2 subject
same,headache considered possibly or probably related to study drug,[1]; 200 mg group,1 subject
same,asthenia considered possibly or probably related to study drug,[1]; 400 mg group,1 subject
same,headache considered possibly or probably related to study drug,[1]; 400 mg group,1 subject
same,vomiting considered possibly or probably related to study drug,[1]; 400 mg group,1 subject
same,urine output,[1]; Days 1-8,increased
same,serum osmolality,"[1]; during the study, dose related",mildly increased
same,tolerability,"[1]; healthy subjects, 50-200 mg Q12H for 7.5 days",well tolerated
same,treatment-emergent AE chest discomfort,[1]; of the 57 enrolled subjects,2 subjects
same,treatment-emergent AE constipation,[1]; of the 57 enrolled subjects,3 subjects
same,treatment-emergent AE headache,[1]; of the 57 enrolled subjects,7 subjects
same,reduction in kidney cAMP levels,"[2]; PCK rats, 0.5% lixivaptan, compared to control",23%
same,cAMP,"[2]; PCK rats F, 0.5% Lixivaptan",15.0 ± 4.6 pmol/mg protein
same,cAMP,"[2]; PCK rats F, 1.0% Lixivaptan",23.6 ± 8.1 pmol/mg protein
same,cAMP,"[2]; PCK rats M, 0.5% Lixivaptan",16.5 ± 5.1 pmol/mg protein
same,cAMP,"[2]; PCK rats M, 1.0% Lixivaptan",24.0 ± 12.0 pmol/mg protein
same,% of subjects with full 24 hour suppression of Uosm to 300 mOsm/kg or lower,[3]; 50 mg lixivaptan twice daily,approximately 16%
same,Urine Osmolality Mean,"[3]; 100 mg as 50 mg Q12H, Day 1 Hour 1",250.9 mOsm/kg
same,Urine Osmolality Mean,"[3]; 100 mg as 50 mg Q12H, Day 1 Hour 2",79.8 mOsm/kg
same,Urine Osmolality Mean,"[3]; 100 mg as 50 mg Q12H, Day 1 Hour 4",150.6 mOsm/kg
same,Urine Osmolality Mean,"[3]; 100 mg as 50 mg Q12H, Day 1 Hour 12",378.7 mOsm/kg
same,Urine Osmolality Mean,"[3]; 100 mg as 50 mg Q12H, Day 8 Hour 0",464.7 mOsm/kg
same,Urine Osmolality Mean,"[3]; 100 mg as 50 mg Q12H, Day 8 Hour 1",222.5 mOsm/kg
same,Urine Osmolality Mean,"[3]; 100 mg as 50 mg Q12H, Day 8 Hour 2",139.1 mOsm/kg
same,Urine Osmolality Mean,"[3]; 100 mg as 50 mg Q12H, Day 8 Hour 4",274.3 mOsm/kg
same,Urine Osmolality Mean,"[3]; 100 mg as 50 mg Q12H, Day 8 Hour 12",447.4 mOsm/kg
same,Urine Osmolality Mean,"[3]; 100 mg as 50 mg Q12H, Day 9 Hour 24 after dosing",564.7 mOsm/kg
same,Urine Osmolality Mean,"[3]; 100 mg as 50 mg Q12H, EOS (end of study, Day 29)",805.5 mOsm/kg
same,% of subjects with full 24 hour suppression of Uosm to 300 mOsm/kg or lower,[3]; 100 mg twice daily,approximately 46%
same,Urine Osmolality Mean,"[3]; 200 mg as 100 mg Q12H, Day 1 Hour 1",285.9 mOsm/kg
same,Urine Osmolality Mean,"[3]; 200 mg as 100 mg Q12H, Day 1 Hour 2",76.9 mOsm/kg
same,Urine Osmolality Mean,"[3]; 200 mg as 100 mg Q12H, Day 1 Hour 4",136.5 mOsm/kg
same,Urine Osmolality Mean,"[3]; 200 mg as 100 mg Q12H, Day 1 Hour 12",369.9 mOsm/kg
same,Urine Osmolality Mean,"[3]; 200 mg as 100 mg Q12H, Day 8 Hour 0",323.6 mOsm/kg
same,Urine Osmolality Mean,"[3]; 200 mg as 100 mg Q12H, Day 8 Hour 1",156.7 mOsm/kg
same,Urine Osmolality Mean,"[3]; 200 mg as 100 mg Q12H, Day 8 Hour 2",93.9 mOsm/kg
same,Urine Osmolality Mean,"[3]; 200 mg as 100 mg Q12H, Day 8 Hour 4",186.7 mOsm/kg
same,Urine Osmolality Mean,"[3]; 200 mg as 100 mg Q12H, Day 8 Hour 12",334.7 mOsm/kg
same,Urine Osmolality Mean,"[3]; 200 mg as 100 mg Q12H, Day 9 Hour 24 after dosing",465.9 mOsm/kg
same,Urine Osmolality Mean,"[3]; 200 mg as 100 mg Q12H, EOS (end of study, Day 29)",694.1 mOsm/kg
same,% of subjects with full 24 hour suppression of Uosm to 300 mOsm/kg or lower (% responders),[3]; 200 mg twice daily,approximately 78%
same,Urine Osmolality Mean,"[3]; 400 mg as 200 mg Q12H, Day 1 Hour 1",237.4 mOsm/kg
same,Urine Osmolality Mean,"[3]; 400 mg as 200 mg Q12H, Day 1 Hour 2",74.5 mOsm/kg
same,Urine Osmolality Mean,"[3]; 400 mg as 200 mg Q12H, Day 1 Hour 4",91.0 mOsm/kg
same,Urine Osmolality Mean,"[3]; 400 mg as 200 mg Q12H, Day 1 Hour 12",294.1 mOsm/kg
same,Urine Osmolality Mean,"[3]; 400 mg as 200 mg Q12H, Day 8 Hour 0",231.0 mOsm/kg
same,Urine Osmolality Mean,"[3]; 400 mg as 200 mg Q12H, Day 8 Hour 1",106.9 mOsm/kg
same,Urine Osmolality Mean,"[3]; 400 mg as 200 mg Q12H, Day 8 Hour 2",82.3 mOsm/kg
same,Urine Osmolality Mean,"[3]; 400 mg as 200 mg Q12H, Day 8 Hour 4",139.1 mOsm/kg
same,Urine Osmolality Mean,"[3]; 400 mg as 200 mg Q12H, Day 8 Hour 12",219.5 mOsm/kg
same,Urine Osmolality Mean,"[3]; 400 mg as 200 mg Q12H, Day 9 Hour 24 after dosing",390.3 mOsm/kg
same,Urine Osmolality Mean,"[3]; 400 mg as 200 mg Q12H, EOS (end of study, Day 29)",704.8 mOsm/kg
same,time of mean maximal reduction of urine osmolality,"[3]; after first dose on Day 1 and Day 8, regardless of the dose",2 h
same,Urine Osmolality Mean,"[3]; healthy subjects, 100 mg as 50 mg Q12H, Day 1 Hour 0 (baseline)",587.8 mOsm/kg
same,Urine Osmolality Mean,"[3]; healthy subjects, 200 mg as 100 mg Q12H, Day 1 Hour 0 (baseline)",602.7 mOsm/kg
same,Urine Osmolality Mean,"[3]; healthy subjects, 400 mg as 200 mg Q12H, Day 1 Hour 0 (baseline)",600.1 mOsm/kg
same,urinary osmolality suppressed to levels below target threshold,[4],< 300 mOsm/kg
